Entries after “also recorded” stand apart in the source; their conditions may differ. Where two headings read alike, the source gives them in different places.
What was measured:
[1] = test system: human ANO1; assay: YFP quenching anion channel assay, FRT-ANO1 cells
[2] = test system: hANO6; details: 10 μM
[3] = test system: SARS-CoV-2; assay: Viral replication of SARS-CoV-2 in primary human nasal epithelial; type: cell-based; details: 10 μM basolateral, 72 h, HNE
[4] = test system: HeLa-ACE2 cells; assay: SARS2-PsV-induced PS externalization in HeLa-ACE2 cells; type: cell-based
[5] = test system: cytosolic Ca2+ signals; assay: Ionomycin-induced cytosolic Ca2+ signals; type: cell-based; details: up to 30 μM
[6] = test system: SARS-CoV-2; assay: Viral replication of authentic SARS-CoV-2 in Vero cells; type: cell-based; details: for IC50: read-out: IC50, viral replication, Vero, supernatant
[7] = biological target: T1, ANO6 (TMEM16F) (Homo sapiens, UniProt Q4KMQ2); assay: Whole-cell patch clamp of ANO6 currents in HEK 293T-ANO6 cells; type: cell-based
T1 sequence (Q4KMQ2 1-931 isoform Q4KMQ2-2): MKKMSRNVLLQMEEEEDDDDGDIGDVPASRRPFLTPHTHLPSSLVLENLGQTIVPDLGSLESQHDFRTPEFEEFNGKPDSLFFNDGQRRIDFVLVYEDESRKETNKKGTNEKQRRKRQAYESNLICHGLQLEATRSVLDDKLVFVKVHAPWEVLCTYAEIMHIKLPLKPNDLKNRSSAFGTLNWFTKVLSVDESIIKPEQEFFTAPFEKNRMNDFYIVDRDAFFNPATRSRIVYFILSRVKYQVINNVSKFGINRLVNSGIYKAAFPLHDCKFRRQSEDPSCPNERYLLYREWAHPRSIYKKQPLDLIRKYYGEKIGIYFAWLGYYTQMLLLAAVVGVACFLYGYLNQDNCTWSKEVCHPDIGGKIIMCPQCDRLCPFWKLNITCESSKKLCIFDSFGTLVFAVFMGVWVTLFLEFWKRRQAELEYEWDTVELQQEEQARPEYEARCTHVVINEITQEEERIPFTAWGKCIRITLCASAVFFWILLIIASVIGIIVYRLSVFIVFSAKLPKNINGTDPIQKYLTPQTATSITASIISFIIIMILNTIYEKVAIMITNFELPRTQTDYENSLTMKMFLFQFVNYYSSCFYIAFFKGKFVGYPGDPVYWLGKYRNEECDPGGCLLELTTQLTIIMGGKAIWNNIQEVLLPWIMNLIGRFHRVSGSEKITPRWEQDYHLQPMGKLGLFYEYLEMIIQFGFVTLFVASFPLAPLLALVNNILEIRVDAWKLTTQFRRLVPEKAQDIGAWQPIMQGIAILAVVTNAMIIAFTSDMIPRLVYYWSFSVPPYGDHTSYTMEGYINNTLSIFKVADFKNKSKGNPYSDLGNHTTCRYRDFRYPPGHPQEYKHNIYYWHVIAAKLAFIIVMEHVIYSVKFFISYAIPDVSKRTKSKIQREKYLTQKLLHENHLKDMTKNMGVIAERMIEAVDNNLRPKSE

[8] = biological target: T2, human ANO2 (Homo sapiens, UniProt Q9NQ90); assay: YFP quenching anion channel assay, FRT-ANO2 cells; type: cell-based
T2 sequence (Q9NQ90 1-998): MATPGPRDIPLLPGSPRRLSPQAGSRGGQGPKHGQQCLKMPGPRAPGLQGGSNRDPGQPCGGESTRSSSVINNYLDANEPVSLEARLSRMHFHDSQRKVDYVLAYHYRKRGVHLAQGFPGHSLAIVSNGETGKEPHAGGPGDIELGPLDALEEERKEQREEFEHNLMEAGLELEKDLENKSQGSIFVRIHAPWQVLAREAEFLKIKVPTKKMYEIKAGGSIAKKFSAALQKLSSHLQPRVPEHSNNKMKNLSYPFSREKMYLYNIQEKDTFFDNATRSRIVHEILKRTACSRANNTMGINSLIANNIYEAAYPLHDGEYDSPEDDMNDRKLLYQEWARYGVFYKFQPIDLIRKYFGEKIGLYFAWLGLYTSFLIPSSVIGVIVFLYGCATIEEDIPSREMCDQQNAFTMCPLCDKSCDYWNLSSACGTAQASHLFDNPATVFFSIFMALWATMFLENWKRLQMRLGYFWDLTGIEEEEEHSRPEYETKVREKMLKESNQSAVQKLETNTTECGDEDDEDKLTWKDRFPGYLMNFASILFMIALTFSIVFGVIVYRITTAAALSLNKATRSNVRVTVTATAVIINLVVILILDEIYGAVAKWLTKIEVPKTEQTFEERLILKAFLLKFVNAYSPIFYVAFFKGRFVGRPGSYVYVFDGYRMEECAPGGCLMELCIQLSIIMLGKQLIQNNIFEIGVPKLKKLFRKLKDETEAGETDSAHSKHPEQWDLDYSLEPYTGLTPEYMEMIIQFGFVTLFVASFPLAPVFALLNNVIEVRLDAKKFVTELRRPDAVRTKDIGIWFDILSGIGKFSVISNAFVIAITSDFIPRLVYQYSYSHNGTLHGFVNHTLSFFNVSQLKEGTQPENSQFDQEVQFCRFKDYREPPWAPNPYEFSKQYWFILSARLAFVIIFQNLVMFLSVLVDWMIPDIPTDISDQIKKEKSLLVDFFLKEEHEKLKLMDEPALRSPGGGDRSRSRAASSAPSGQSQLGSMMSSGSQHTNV

[9] = test system: Calu-3 cells; assay: ATP-induced Ca2+ response in Calu-3 cells; type: cell-based, human; details: 10 μM, ATP 100 μM
[10] = test system: human WT-CFTR; assay: CFTR short-circuit current in FRT-CFTR cells; type: cell-based; details: up to a 30-μM concentration
[11] = biological target: T3, ANO6 phospholipid scramblase (Homo sapiens, UniProt Q4KMQ2); assay: Ionomycin-induced PS externalization; type: cell-based
T3 sequence (Q4KMQ2 1-931 isoform Q4KMQ2-2): T1 sequence (Q4KMQ2 1-931 isoform Q4KMQ2-2)

[12] = biological target: T4, human ANO6 (Homo sapiens, UniProt Q4KMQ2); assay: YFP fluorescence quenching-based anion channel assay, FRT-ANO6 cells; type: cell-based; details: half-maximal inhibitory concentration [IC50], ANO6 ion channel, FRT-ANO6 cells; 10 μM ionomycin
T4 sequence (Q4KMQ2 1-931 isoform Q4KMQ2-2): T1 sequence (Q4KMQ2 1-931 isoform Q4KMQ2-2)

[13] = test system: SARS-CoV-2 Spike pseudotyped virus (SARS2-PsV); assay: microbe, parasite or virus in culture; type: cell-based
[14] = test system: SARS-CoV-2; assay: Cellular viral RNAs by qPCR at 4 h post-infection in Vero cells; type: cell-based; details: 0.01 MOI
[15] = 10 μM during infection and 4 h post-infection
[16] = 10 μM during the infection period alone

## O=C(NCc1ccc(F)cc1)c1cccc(Nc2ccc(-c3ccccc3)nn2)c1 [A6-001, N-(4-fluorobenzyl)-3-((6-phenylpyridazin-3-yl)amino)benzamide]
[1]
  ANO6 selectivity against ANO1: 460 fold
[2]; Jurkat-ANO6
  ionomycin-induced increase in Lact-C2-positive, PI-negative cell population (Q3): reversed
[2]; Jurkat
  ionomycin-induced increase in Lact-C2-positive, PI-negative cell population (Q3): reversed
[3]
  average reduction in viral replications, plaque assay: 94%
[4]; 10 μM, 1 h
  SARS2-PsV-induced PS externalization: strongly inhibited; also recorded: inhibit
[4]; trypsin 10 μg/mL, 10 min, 37°C
  PS externalization evoked by trypsin-pretreated SARS2-PsV: inhibits
[5]
  ionomycin-induced cytosolic Ca2+ signals: did not affect
[6]; 10 μM, 48 h, Vero
  viral reduction, plaque assay: 1/500
  viral reduction, qPCR: 1/150
  ΔCt: −11.8
[6]; Severe acute respiratory syndrome coronavirus 2, Vero, 48 h
  IC50: 930 nM
[6]; Vero, 48 h, light microscopy
  virus-induced cytolysis: dose dependently reduced
[6]
  IC50: 740 nM
[7]
  IC50: 70 nM
[8]
  ANO6 selectivity against ANO2: 90 fold
[9]
  purinergic agonist (ATP)-induced Ca2+ response: did not alter
[10]
  CFTR currents: did not affect
[11]
  IC50: 910 nM
[11]; 10 μM, FRT-ANO6 cells
  ionomycin-induced PS externalization: most effective
[11]; larger
  scramblase IC50 relative to that for ANO6 ion channel activity: approximately 10 fold
[12]
  IC50: 90 nM
[13]
  cellular viral reduction, pseudotyped virus: 78%
[13]; BAPTA-AM 10 μM
  single-round infection of SARS2-PsV: dose dependently inhibited
[13]; Severe acute respiratory syndrome coronavirus 2, read-out: IC50, single-round infection
  IC50: 420 nM
[14]; [15]
  reduction in cellular viral RNAs: 98%
  ΔΔCt, cellular viral RNA: 5.58
[14]; [16]
  cellular viral reduction, authentic virus: 86%
  ΔΔCt, cellular viral RNA: 2.84
